Patent US6869946B2, “Substituted azabicyclic moieties for the treatment of disease” (Pfizer Inc, priority 2001, dated 2005)

Target: T1, α7 nAChR (Rattus norvegicus, UniProt Q05941)
T1 construct: brains (whole brain minus cerebellum) are dissected quickly, weighed and homogenized; from tissue; host or cells: rat brain (whole brain minus cerebellum) membranes
Experiment: [3H]-MLA competition binding assay in rat brain membranes
Settings: inhibition of [3H]-MLA binding, rat brain homogenate (whole brain minus cerebellum), Cheng-Prusoff
Description: Materials and Methods for Identifying Binding Constants:
Membrane Preparation. Male Sprague-Dawley rats (300-350 g) are sacrificed by decapitation and the brains (whole brain minus cerebellum) are dissected quickly, weighed and homogenized in 9 volumes/g wet weight of ice-cold 0.32 M sucrose using a rotating pestle on setting 50 (10 up and down strokes). The homogenate is centrifuged at 1,000× g for 10 minutes at 4° C. The supernatant is collected and centrifuged at 20,000× g for 20 minutes at 4° C. The resulting pellet is resuspended to a protein concentration of 1-8 mg/mL. Aliquots of 5 mL homogenate are frozen at −80° C. until needed for the assay. On the day of the assay, aliquots are thawed at room temperature and diluted with Kreb's—20 mM Hepes buffer pH 7.0 (at room temperature) containing 4.16 mM NaHCO3, 0.44 mM KH2PO4, 127 MM NaCl, 5.36 mM KCl, 1.26 mM CaCl2, and 0.98 mM MgCl2, so that 25-150 μg protein are added per test tube. Protein concentration is determined by the Bradford method (Bradford, M. M., Anal. Biochem., 72, 248-254, 1976) using bovine serum albumin as the standard.
Binding Assay. For saturation studies, 0.4 mL homogenate are added to test tubes containing buffer and various concentrations of radioligand, and are incubated in a final volume of 0.5 mL for 1 hour at 25° C. Nonspecific binding was determined in tissues incubated in parallel in the presence of 1 μM MLA, added before the radioligand. In competition studies, drugs are added in increasing concentrations to the test tubes before addition of approximately 3.0 to 4.0 nM [^3H]-MLA. The incubations are terminated by rapid vacuum filtration through Whatman GF/B glass filter paper mounted on a 48 well Brandel cell harvester. Filters are pre-soaked in 50 mM Tris HCl pH 7.0-0.05% polyethylenimine. The filters are rapidly washed two times with 5 mL aliquots of cold 0.9% saline and then counted for radioactivity by liquid scintillation spectrometry.
Data Analysis. In competition binding studies, the inhibition constant (Ki) was calculated from the concentration dependent inhibition of [^3H]-MLA binding obtained from non-linear regression fitting program according to the Cheng-Prusoff equation (Cheng, Y. C. and Prussoff, W. H., Biochem. Pharmacol., 22, p. 3099-3108, 1973). Hill coefficients were obtained using non-linear regression (GraphPad Prism sigmoidal dose-response with variable slope).

T1 sequence (Q05941 23-502): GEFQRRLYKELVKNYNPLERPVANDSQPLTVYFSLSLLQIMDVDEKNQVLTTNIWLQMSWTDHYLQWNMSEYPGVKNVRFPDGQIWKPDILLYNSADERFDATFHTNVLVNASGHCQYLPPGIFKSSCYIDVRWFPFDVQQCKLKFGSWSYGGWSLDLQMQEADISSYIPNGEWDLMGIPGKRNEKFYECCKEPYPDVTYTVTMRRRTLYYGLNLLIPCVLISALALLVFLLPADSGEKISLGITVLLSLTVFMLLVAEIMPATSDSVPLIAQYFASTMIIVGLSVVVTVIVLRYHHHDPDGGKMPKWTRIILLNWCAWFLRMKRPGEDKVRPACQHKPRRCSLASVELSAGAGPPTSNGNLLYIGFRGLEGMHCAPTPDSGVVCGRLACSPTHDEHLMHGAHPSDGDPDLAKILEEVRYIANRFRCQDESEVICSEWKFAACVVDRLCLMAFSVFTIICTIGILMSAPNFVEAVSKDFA

O=C(NC1CC2CCN(C2)C1)c1ccc(Cl)cc1 (racemic) [Example 3 (racemic), Exo-N-[1-azabicyclo[3.2.1]oct-3-yl]-4-chlorobenzamide 4-methylbenzenesulfonate]
Ki: 115 nM

O=C(N[C@H]1C[C@@H]2CCN(C2)C1)c1ccc(Cl)cc1 [Example 3 (3S, 5S), (3S,5S)-N-(1-azabicyclo[3.2.1]oct-3-yl)-4-chlorobenzamide 4-methylbenzenesulfonate]
Ki: > 1000 nM

C[C@H]1[C@H](NC(=O)c2ccc(Cl)cc2)C2CCN1CC2 [Example 1(b)(i), 4-chloro-N-[(2S,3R)-2-methyl-1-azabicyclo[2.2.2]oct-3-yl]benzamide 4-methylbenzenesulfonate]
Ki: 65 to 140 nM

O=C(N[C@@H]1C[C@H]2CCN(C2)C1)c1ccc(Cl)cc1 [Example 3 (3R, 5R), (3R,5R)-N-(1-azabicyclo[3.2.1]oct-3-yl)-4-chlorobenzamide 4-methylbenzenesulfonate]
Ki: 18 nM

O=C(N[C@H]1CN2CCC1CC2)c1ccc(Cl)cc1 [Example 1(a)]
Ki: 26 nM
